These molecules were tested against Growth factor receptor-bound protein 2 (Homo sapiens, UniProt P62993) (assay: Inhibition of Grb2-SH2 domain binding to phospho-EGF receptor intracellular C-terminal domain).
Assay type: cell-based

Sequence of Growth factor receptor-bound protein 2 (P62993 whole entry, the tested form may be a part): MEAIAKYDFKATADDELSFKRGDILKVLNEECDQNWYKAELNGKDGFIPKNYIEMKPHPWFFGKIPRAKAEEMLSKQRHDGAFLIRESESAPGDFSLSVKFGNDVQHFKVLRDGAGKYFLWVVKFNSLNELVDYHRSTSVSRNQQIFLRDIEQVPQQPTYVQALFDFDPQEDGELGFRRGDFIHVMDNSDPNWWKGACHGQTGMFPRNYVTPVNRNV

Point of comparison: CC(=O)N[C@@H](Cc1ccc(CP(C)(=O)O)cc1)C(=O)NC1(C(=O)N[C@@H]2CCCC[C@@H]2C(N)=O)CCCCC1, IC50 25500 nM. Against it:
- CC(=O)N[C@@H](Cc1ccc(CP(=O)(O)C(O)c2ccccc2)cc1)C(=O)NC1(C(=O)N[C@@H]2CCCC[C@@H]2C(N)=O)CCCCC1 (stereo partly specified) — 48-fold lower, 530 nM
- CC(=O)N[C@@H](Cc1ccc(CP(=O)(O)CCO)cc1)C(=O)NC1(C(=O)N[C@@H]2CCCC[C@@H]2C(N)=O)CCCCC1 — 16-fold lower, 1600 nM
- CC(=O)N[C@@H](Cc1ccc(CP(=O)(O)CO)cc1)C(=O)NC1(C(=O)N[C@@H]2CCCC[C@@H]2C(N)=O)CCCCC1 — 3.4-fold lower, 7600 nM
- CC(=O)N[C@@H](Cc1ccc(CP(=O)(O)Cc2ccccc2)cc1)C(=O)NC1(C(=O)N[C@@H]2CCCC[C@@H]2C(N)=O)CCCCC1 — 21-fold lower, 1200 nM
- CC(=O)N[C@@H](Cc1ccc(CP(=O)(O)O)cc1)C(=O)NC1(C(=O)N[C@@H]2CCCC[C@@H]2C(N)=O)CCCCC1 — 36-fold lower, 700 nM

— ChEMBL document CHEMBL1132781, “Structure-based design and synthesis of phosphinate isosteres of phosphotyrosine for incorporation in Grb2-SH2 domain inhibitors. Part 1” (Bioorg Med Chem Lett, 2000)
